In US10463709B2, “Short synthetic peptide for treating diseases and/or conditions related to angiogenesis” (MacKay Memorial Hospital, priority 2015, dated 2019):
Ends that are not written are not given here.

Columns and labels:
[1] = system: STZ-induced diabetic mice; assay: Vascular abnormalities in the retina of diabetic mice; assay type: in vivo
Procedure, shortened: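 Diabetes induced by single i.p. STZ 150 mg/kg; mice with non-fasting glucose >500 mg/dl after 1 week used. Peptide 10 mg/kg or DMSO vehicle i.p. twice daily for 24 h, then BSA-FITC 100 mg/kg i.p. for 30 min; retinal lesions counted on flat mounts (average lesions/retina), FITC-BSA leakage by fluorometry (ex 488/em 535 nm) normalized to non-injected control retina.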

diabetic rats = assay: Vascular abnormalities in the retina of diabetic rats; assay type: in vivo, Sprague-Dawley rats; conditions: intravitreal injection
Description: Diabetes was induced in male Sprague-Dawley rats after fasting overnight by a single intraperitoneal injection of STZ (65 mg/kg body weight). STZ was freshly prepared in 0.1 M citrate buffer (pH 4.5). Rats with blood glucose levels >350 mg/dl for 5 days after receiving STZ were considered to be in diabetic status and were termed diabetic rats hereinafter. Blood glucose levels were checked every 2 days a blood glucose monitor. Animals that served as non-diabetic controls received an equivalent amount of citrate buffer alone. For peptide treatment, diabetic rats were anesthetized by an intraperitoneal injection of a Xylazine (10 mg/kg), and then intravitreally injected with 3 μl of the present synthetic peptide (10 mM) into one eye and an equal volume of PBS was injected into the contralateral eye (n=3-6 per group). After peptide treatment for 24 h, measurement of retinal vascular leakage by BSA-FITC (100 mg/kg body weight) was conducted in according to procedures described above.

HUVECs = assay: VEGF-induced HUVEC proliferation assay; assay type: cell-based; conditions: VEGF (10 ng/mL) + 25 μM peptide; vs untreated HUVECs
[2] = system: laser-induced wet AMD mouse model; assay: Laser induced choroidal neovascularization (CNV), mouse; assay type: in vivo, C57BL/6 mice; conditions: 10 mg/kg intraperitoneal twice a day for 10 days; vs vehicle
Description: The 8-week-old female C57BL/6 mice were anaesthetized by injecting intraperitoneally a mixture of zoletil (6 mg/kg) and xylazine (3 mg/kg). The retina was viewed through a slit lamp microscope, and the optic nerve head was placed in the center of the microscope field. Both eyes received 3 or 4 laser burns around the optic nerve head using the diode laser (lesion diameter 50 μm; duration 100 ms; energy 250 mW). The formation of a blister indicates rupture of the Bruch's membrane after laser application. DMSO Vehicle or 7-mer (10 mg/kg; n≥10 per peptide) were administered by intraperitoneal injections twice a day for 10 days. Fluorescein fundus images were taken about 5 minutes after intraperitoneal injection of 0.1 mL of 100 mg/ml Fluorescein (10% w/v). During this period, the size of fluorescein leakage spots was relatively stable. The leakage of each CNV lesion was graded by a retina specialist according to the method described by Sheets et al. (Molecular Vision 2010; 16:320-329). […]
Wet type age-related macular degeneration (AMD) is characterized by extensive growth of new vessels in retina. […] Newly formed microvessels with clear fluorescein leakage in retina were assessed by fundus fluorescein angiography 10 days post laser treatment, and results are provided in the photographs of FIG. 13.

How did the “extravasation of FITC-BSA” value [1] turn out when “NH2-Asp-Leu-Tyr-Arg-Val-Arg-Ser-COOH (DLYRVRS; not fully specified (N-terminus, C-terminus); printed as NH2-Asp-Leu-Tyr-Arg-Val-Arg-Ser-COOH) [7-mer]” was run?
The value was “may significantly prevent”.

What about the “number of vascular lesions in retina” value ([1]; 10 mg/kg intraperitoneal twice a day, 24 h) of the same substance?
The value was 1.8±0.54.

And the “hemorrhage in the retinal parenchyma” value ([1]; intraperitoneal)?
Its value is “successfully blocked”.

What about the “Fluorescence Intensity (Fold)” value ([1]; leaked FITC-BSA in entire retina, vs vehicle) of the same substance?
The value was 0.29 ± 0.076 Fold.

What about the “levels of leaked FITC-BSA in entire retina vs vehicle” value (diabetic rats) of the same substance?
The value was 0.43±0.07 fold.

And the “number of vascular lesion in retina” value (diabetic rats; 24 h)?
The value was 9.2±2.15.

And the “Cell number (Fold)” value (HUVECs)?
The value was 0.95 ± 0.050 Fold.

And the “CNV lesion grades, severity distribution” value [2]?
The value was “lower severity distribution of CNV”.
